Series [1] concerns HA antigen of influenza virus (strain: A/Solomon). Further details: species or system BALB/c mice. Particulars: mouse, in vivo, sc.
Series [2] can be described thus: Observation of administered mice for abnormality / induration at topical area. It counts as in vivo. The settings on record: mice administered with citrulline; compared with induration seen where Alum is administered.

Consider `NC(=O)NCCCC(N)C(=O)O` (centres unmarked) [citrulline, 2-amino-5-(carbamoylamino)-pentanoic acid], for which the “adjuvant effect compared with Alum adjuvant (in words)” value in series [1] is listed as “same extent as that of Alum adjuvant”. For the same molecule, the “abnormality / induration in mice administered” value in series [2] is listed as “neither abnormality nor induration”.

(Values after US10556005B2 (priority 2011, dated 2020).)
